Measurements published in ChEMBL document CHEMBL1201862, “PubChem BioAssay data set” (2004).
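Where inhibition never reached the appropriate level, the endpoint shown equals the highest concentration tested. Otherwise, values were interpolated linearly from a five-concentration, 48-hour dose response in 96-well plates. Abbreviation: GI50, concentration required for 50% inhibition of growth.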 Activity calls are given as the source filed them. Cut-off read from the data, not from the text of the source: active = GI50 up to about 1.1 µM and inactive = higher.

What was measured:
Assay in all cases: inhibition of tumour cell growth, NCI panel, 48 h
[1] = tested on: 786-0
[2] = tested on: A498
[3] = tested on: A549
[4] = tested on: ACHN
[5] = tested on: CAKI-1
[6] = tested on: CCRF-CEM
[7] = tested on: DU-145
[8] = tested on: EKVX
[9] = tested on: HCC 2998
[10] = tested on: HCT-116
[11] = tested on: HCT-15
[12] = tested on: HL-60
[13] = tested on: HOP-62
[14] = tested on: HOP-92
[15] = tested on: HT-29
[16] = tested on: Hs-578T
[17] = tested on: IGROV-1
[18] = tested on: K562
[19] = tested on: LOX IMVI
[20] = tested on: M14
[21] = tested on: MCF7
[22] = tested on: MDA-MB-231
[23] = tested on: MDA-MB-435
[24] = tested on: MDA-N
[25] = tested on: MOLT-4
[26] = tested on: Malme-3M
[27] = tested on: NCI-H23
[28] = tested on: NCI-H460
[29] = tested on: NCI-H522
[30] = tested on: NCI/ADR-RES
[31] = tested on: OVCAR-3
[32] = tested on: OVCAR-4
[33] = tested on: OVCAR-5
[34] = tested on: OVCAR-8
[35] = tested on: PC-3
[36] = tested on: RPMI-8226
[37] = tested on: RXF 393
[38] = tested on: SF-268
[39] = tested on: SF-295
[40] = tested on: SF-539
[41] = tested on: SK-MEL-28
[42] = tested on: SK-MEL-2
[43] = tested on: SK-MEL-5
[44] = tested on: SK-OV-3
[45] = tested on: SNB-19
[46] = tested on: SNB-75
[47] = tested on: SR
[48] = tested on: SW-620
[49] = tested on: T47D
[50] = tested on: TK-10
[51] = tested on: U-251
[52] = tested on: UACC-257
[53] = tested on: UO-31

In the case of `COC(=O)c1c2c(cc3c1CC1(Cc4cc5c(c(C=O)c4C1)CCC5)C3)CCC2` (stereo not drawn), the GI50 [1] is reported as 29.4 µM (inactive), the GI50 [2] is reported as 33.6 µM (inactive) and the GI50 [3] is reported as 27.9 µM (inactive). For the same molecule, the GI50 [4] was 32.9 µM (inactive), the GI50 [5] was > 100 µM (inactive) and the GI50 [6] was 13.4 µM (inactive). For the same molecule, the GI50 [7] was 38.1 µM (inactive), the GI50 [8] was 62.1 µM (inactive) and the GI50 [9] was 24.7 µM (inactive). The GI50 [10] was 21.2 µM (inactive), the GI50 [11] was 40.3 µM and the GI50 [12] was 25.8 µM (inactive). For the same molecule, the GI50 [13] was 51.9 µM (inactive), the GI50 [14] was 19.3 µM (inactive) and the GI50 [15] was 21.4 µM (inactive). For the same molecule, the GI50 [16] was 92.7 µM (inactive), the GI50 [17] was 28.4 µM (inactive) and the GI50 [18] was 13.4 µM (inactive). The GI50 [19] was 22.5 µM (inactive), the GI50 [20] was 22.2 µM (inactive) and the GI50 [21] was 42 µM (inactive). For the same molecule, the GI50 [22] was 28.4 µM (inactive), the GI50 [23] was 17.7 µM (inactive) and the GI50 [24] was 34 µM (inactive). For the same molecule, the GI50 [25] was 17 µM (inactive), the GI50 [26] was 22.9 µM (inactive) and the GI50 [27] was 47.8 µM (inactive). The GI50 [28] was 45 µM (inactive), the GI50 [29] was 17.3 µM (inactive) and the GI50 [30] was 40.5 µM (inactive). For the same molecule, the GI50 [31] was 23.3 µM (inactive), the GI50 [32] was > 100 µM (inactive) and the GI50 [33] was 67.8 µM (inactive). The GI50 [34] was 42.8 µM (inactive), the GI50 [35] was 30.8 µM (inactive) and the GI50 [36] was 55.1 µM (inactive). For the same molecule, the GI50 [37] was 30.7 µM (inactive), the GI50 [38] was 50.7 µM (inactive) and the GI50 [39] was 41.4 µM (inactive). The GI50 [40] was 75.5 µM (inactive), the GI50 [41] was 52.5 µM (inactive) and the GI50 [42] was 23.8 µM (inactive). The GI50 [43] was 16 µM (inactive), the GI50 [44] was 42.5 µM (inactive) and the GI50 [45] was 44.7 µM (inactive). For the same molecule, the GI50 [46] was > 100 µM (inactive), the GI50 [47] was 19.3 µM (inactive) and the GI50 [48] was 53.2 µM (inactive). For the same molecule, the GI50 [49] was 30.7 µM (inactive), the GI50 [50] was 98.4 µM (inactive) and the GI50 [51] was 19.8 µM (inactive). For the same molecule, the GI50 [52] was 21.2 µM (inactive) and the GI50 [53] was 25.1 µM (inactive).
